How the values were obtained:
[1] = test system: WT strain of S. aureus; test: Pigment production of S. aureus grown in the presence of the agent; type: cell-based, Staphylococcus aureus; details: FIG. 4a
Method: (§1) Wild-type and ΔCrtM mutant S. aureus were cultured in the presence or absence of SKF 525-A at the indicated concentrations. Depicted are the observed effects on A) pigmentation phenotype, B) singlet oxygen susceptibility, and C) survival in murine whole blood. Results shown are representative of at least three experiments.
Wild-type S. aureus strain (Pig1), isolated from the skin of a child with atopic dermatitis. Streptococcus pyogenes strain 5448 is a well-characterized serotype M1T1 clinical isolate^18. CD1 and C57Bl/6 mice were purchased from Charles River. The gp91^Phox−/− mice were bred at the Veteran's Administration Medical Center, San Diego and maintained on trimethoprim/sulfamethoxazole prophylaxis until 3 d prior to experiments. S. aureus and S. pyogenes were propagated in Todd-Hewitt broth (THB) or on THB agar (Difco, Detroit, Mich.). Unless otherwise indicated, all experiments were performed with bacteria derived from S. aureus 36-48 h stationary phase cultures or S. pyogenes 24 h stationary phase cultures, a point when pigmentation phenotypes were readily apparent.
Stationary phase (48 h) cultures of WT S. aureus Pig1 and its isogenic ΔCrtM mutant were subjected to methanol extraction. The absorbance profile of the extracts was measured with a MBA 2000 spectrophotometer (Perkin Elmer). […]

[2] = test system: WT S. aureus; test: Singlet oxygen susceptibility assay (methylene blue and light), WT strain; type: cell-based, Staphylococcus aureus; details: WT S. aureus cultured with SKF 525-A, FIG. 4b
Method: as §1
(§2) Tests for susceptibility to oxidants were performed either in PBS (S. aureus) or THB (S. pyogenes). Hydrogen peroxide (H2O2) was added to 1.5% final concentration, […] bacteria incubated at 37° C. for 1 h, then 1,000 U/ml of catalase (Sigma) added to quench residual H2O2. […] For the singlet oxygen assay, 10^8 S. aureus or 4×10^8 S. pyogenes were incubated at 37° C. in individual wells of a 24-well culture plate in the presence or absence of 1-6 μg/ml methylene blue and situated exactly 10 cm from a 100-watt light source. Bacterial viability was assessed after 1-3 h by plating dilutions on THA.
(§3) Given the protective effect provided to the bacteria by the golden yellow pigments, a pharmacologic agent that inhibits carotenogenesis might render S. aureus more susceptible to immune clearance.

[3] = test system: ΔCrtM mutant S. aureus; test: Singlet oxygen susceptibility assay (methylene blue and light), ΔCrtM mutant control; type: cell-based, Staphylococcus aureus; details: ΔCrtM mutant exposed to SKF 525-A, FIG. 4b
Method: as §1, §2, §3

[4] = test system: WT S. aureus; test: Whole blood killing assay, WT strain; type: cell-based, Staphylococcus aureus; details: WT S. aureus cultured with SKF 525-A, FIG. 4c
Method: Wild-type and ΔCrtM mutant S. aureus were cultured in the presence or absence of SKF 525-A at the indicated concentrations. […] Results shown are representative of at least three experiments.
as §3

[5] = test system: ΔCrtM mutant S. aureus; test: Whole blood killing assay, ΔCrtM mutant control; type: cell-based, Staphylococcus aureus; details: ΔCrtM mutant exposed to SKF 525-A, FIG. 4c
Method: as §1, §3

[6] = test system: WT strain of S. aureus; details: earlier report; moderate residual accumulation of δ carotenoid intermediate noted; cited from earlier work
[7] = test system: WT and ΔCrtM S. aureus; test: Protease and cathelicidin sensitivity assays; type: cell-based, Staphylococcus aureus; details: WT vs ΔCrtM S. aureus, 2 h at 37° C., FIG. 6d, e
Method: Human neutrophil elastase, and cathepsin G were purchased from Calbiochem. The antimicrobial peptide mCRAMP was synthesized at the Louisiana State University Protein Facility (Martha Juban, Director). S. aureus cultures were diluted (1:2,000) in 10 mM phosphate buffer (pH 7.2)+0.5% LB to 1×10^6 CFU/ml. Ninety μl of this bacterial suspension was added to replicate wells in a 96-well plate. Dilutions of the cathepsin G (20 and 100 mU/ml), human neutrophil elastase (12.5 and 50 μg/ml), and murine CRAMP (0.4-3 μM) were prepared in 10 mM phosphate buffer and added to wells in 10 μl volume; 10 mM phosphate buffer alone was used as a negative control. After 2 h incubation at 37° C., 25 μl aliquots of each well were serially diluted in PBS and plated on THB. Each experiment was performed in duplicate and repeated.

[8] = test system: WT and ΔCrtM S. aureus in human neutrophils; details: FIG. 2d
Method: Neutrophils were purified from healthy human volunteers using a Histopaque gradient (Sigma) per manufacturer's directions. Intracellular survival assays were performed as follows. Bacterial cultures were washed twice in PBS, diluted to a concentration of 4.5×10^6 cfu in 100 μl RPMI+10% FCS, and mixed with 3×10^5 neutrophils in the same media (multiplicity of infection, MOI=15:1), centrifuged at 700×g for 5 min, then incubated at 37° C. in a 5% CO2 incubator. Gentamicin (Gibco) (final concentration 400 μg/ml for S. aureus and 100 μg/ml for S. pyogenes) was added after 10 min to kill extracellular bacteria. At specified time points, the contents of sample wells were withdrawn, centrifuged to pellet the neutrophils, and washed to remove the antibiotic medium. Neutrophils were then lysed in 0.02% triton-X, and cfu calculated by plating on THA. Several assays were repeated with addition of a step involving preincubation of the bacterial inoculum with 10% autologous human serum for 15 min on ice.

[9] = test system: WT and ΔCrtM S. aureus in mouse blood; details: FIG. 6c
Method: Bacteria were washed twice in PBS, diluted to an inoculum of 10^4 cfu in 25 μl PBS, and mixed with 75 μl of freshly drawn human or mouse blood in heparinized tubes. The tubes were incubated at 37° C. for 4 h with agitation, at which time dilutions were plated on THA for enumeration of surviving cfu.

CCCC(C(=O)OCCN(CC)CC)(c1ccccc1)c1ccccc1 [SKF 525-A, 2-diethylaminoethyl-2,2-diphenyl-valerate]
pigment production [1]: dose-dependent decrease
susceptibility to singlet oxygen killing [2]: dose-dependent increase
effect on oxidant susceptibility [3]: no significant effects
ability to survive in human whole blood [4]: decrease
effect on blood survival [5]: no significant effects
pigment formation in S. aureus (previously shown) [6]: inhibit pigment formation

cathepsin G: granule protease purchased from Calbiochem
susceptibility of S. aureus to antimicrobial action [7]: no difference

c1ccc2c(c1)[I+]c1ccccc1-2 [DPI, diphenyleneiodonium]
survival of WT and ΔCrtM S. aureus in human neutrophils when oxidative burst inhibited [8]: survived equally well
survival of WT and ΔCrtM S. aureus in mouse blood when oxidative burst inhibited [9]: survived equally well

human neutrophil elastase: granule protease purchased from Calbiochem
susceptibility of S. aureus to antimicrobial action [7]: resistant

mCRAMP: murine cathelicidin antimicrobial peptide, synthesized at Louisiana State University Protein Facility (ISRLAGLLRKGGEKIGEKLKKIGQKIKNFFQKLVPQPE; Cathelin-related antimicrobial peptide; UniProt P51437 135-172, looked up)
susceptibility of S. aureus to antimicrobial action [7]: equally susceptible

— patent publication US8507551B2, “Antimicrobial therapy for bacterial infections” (priority 2005, dated 2013)
